Experimental data taken from patent publication US12448394B2, “Heterocyclic pyrazole derivatives as type III receptor tyrosine kinase inhibitors” (DEVELOPMENT CENTER FOR BIOTECHNOLOGY, priority 2019, dated 2025).

Columns and labels:
Type in all cases: biochemical
FLT3 kinase = target: T1, FLT3 kinase (Homo sapiens, UniProt P36888); test: FLT3 kinase assay (AlphaScreen); settings: read-out: Ranking of IC50 values, FLT3
T1 construct: purchased SignalChem
T1 sequence (P36888 27-993): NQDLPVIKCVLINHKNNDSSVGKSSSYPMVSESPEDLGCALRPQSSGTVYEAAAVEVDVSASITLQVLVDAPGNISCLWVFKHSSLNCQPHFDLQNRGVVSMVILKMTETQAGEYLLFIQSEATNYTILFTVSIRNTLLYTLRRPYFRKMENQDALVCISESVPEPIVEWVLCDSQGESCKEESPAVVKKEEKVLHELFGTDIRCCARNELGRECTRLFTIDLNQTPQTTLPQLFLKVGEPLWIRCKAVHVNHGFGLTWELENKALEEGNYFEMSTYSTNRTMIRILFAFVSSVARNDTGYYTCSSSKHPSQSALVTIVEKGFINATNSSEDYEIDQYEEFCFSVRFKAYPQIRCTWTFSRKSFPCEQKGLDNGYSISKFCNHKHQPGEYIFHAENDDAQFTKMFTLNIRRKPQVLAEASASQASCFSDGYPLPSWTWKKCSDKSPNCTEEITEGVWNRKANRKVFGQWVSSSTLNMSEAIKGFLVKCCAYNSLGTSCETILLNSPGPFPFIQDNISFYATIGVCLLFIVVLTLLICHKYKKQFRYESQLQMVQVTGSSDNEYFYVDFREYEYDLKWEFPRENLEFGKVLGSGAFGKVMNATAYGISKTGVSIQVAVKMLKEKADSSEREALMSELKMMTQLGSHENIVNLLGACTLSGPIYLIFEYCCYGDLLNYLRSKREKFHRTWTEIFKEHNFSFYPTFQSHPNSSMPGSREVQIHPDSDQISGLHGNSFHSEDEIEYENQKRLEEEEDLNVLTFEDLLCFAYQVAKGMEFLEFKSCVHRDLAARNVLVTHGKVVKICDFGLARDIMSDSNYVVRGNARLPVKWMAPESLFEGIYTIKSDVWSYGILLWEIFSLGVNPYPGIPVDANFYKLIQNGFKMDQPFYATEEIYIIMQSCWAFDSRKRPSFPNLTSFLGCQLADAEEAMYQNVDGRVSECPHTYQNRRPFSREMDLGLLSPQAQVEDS
Procedure, shortened: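 AlphaScreen detection of biotin-poly(Glu4:Tyr1) phosphorylation by 1.5 ng recombinant FLT3 (10 μM ATP, pH 7.0 MOPS, 10 mM MgCl2; 30 °C, 30 min, EDTA quench). IC50 values derived from serially diluted compound tested in duplicate.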

PDGFRα kinase = target: T2, PDGFRα kinase (Homo sapiens, UniProt P16234); test: PDGFRα kinase assay (AlphaScreen); settings: read-out: Ranking of IC50 values, PDGFRα
T2 construct: purchased SignalChem
Description: Inhibition of PDGFRα kinase activity by a test compound disclosed herein was estimated by AlphaScreen (PerkinElmer). Standard assay conditions were 1.5 ng of recombinant PDGFRα kinase (SignalChem) with 6 ng Biotin-conjugated Poly-(Glu 4: Tyr 1) (Cisbio) in the assay buffer (10 μM ATP, 10 mM MOPs, pH 7.0, 0.21 mM EDTA, 0.5% glycerol, 1 mg/mL BSA, 0.01% 2-mercaptoethanol, 0.001% Brij35, 10 mM MgCl2) in a final volume of 25 μL. Reactions were incubated at 30° C. for 30 min and stopped by adding […] of 50 mM EDTA. Analysis of resulting product using an AlphaScreen kit and counted with Enspire Alpha (PerkinElmer). […] The IC50 values of inhibitors were determined after carrying out assays with each compound at serially diluted concentrations in duplication. The results were analyzed using linear regression software (GraphPad Prism 5; GraphPad Software Inc.)

MET kinase = target: T3, MET kinase (Homo sapiens, UniProt P08581); test: MET kinase assay (AlphaScreen, counter screen); settings: read-out: Ranking of IC50 values, MET
T3 construct: purchased SignalChem
Description: Because MET kinase belonged to Class VIII RTK family have one transmembrane a chain linked with one extracellular β chain which is different form Class III RTK family with 5 Immunoglobin-like extracellular domains. Standard assay conditions were 1 ng of recombinant MET kinase (SignalChem) with 3 ng Biotin-conjugated Poly-(Glu 4: Tyr 1) (Cisbio) in the assay buffer ([…], 10 mM MOPs, pH 7.0, 0.21 mM EDTA, 0.5% glycerol, 1 mg/mL BSA, 0.01% 2-mercaptoethanol, 0.001% Brij35, 10 mM MgCl2) in a final volume of 25 μL. Reactions were incubated at 30° C. for 45 min and stopped by adding 5 μL of 50 mM EDTA. Analysis of resulting product using an AlphaScreen kit and counted with Enspire Alpha (PerkinElmer). […] The IC50 values of inhibitors were determined after carrying out assays with each compound at serially diluted concentrations in duplication. The results were analyzed using linear regression software (GraphPad Prism 5; GraphPad Software Inc.)

T3 sequence (P08581 25-1390): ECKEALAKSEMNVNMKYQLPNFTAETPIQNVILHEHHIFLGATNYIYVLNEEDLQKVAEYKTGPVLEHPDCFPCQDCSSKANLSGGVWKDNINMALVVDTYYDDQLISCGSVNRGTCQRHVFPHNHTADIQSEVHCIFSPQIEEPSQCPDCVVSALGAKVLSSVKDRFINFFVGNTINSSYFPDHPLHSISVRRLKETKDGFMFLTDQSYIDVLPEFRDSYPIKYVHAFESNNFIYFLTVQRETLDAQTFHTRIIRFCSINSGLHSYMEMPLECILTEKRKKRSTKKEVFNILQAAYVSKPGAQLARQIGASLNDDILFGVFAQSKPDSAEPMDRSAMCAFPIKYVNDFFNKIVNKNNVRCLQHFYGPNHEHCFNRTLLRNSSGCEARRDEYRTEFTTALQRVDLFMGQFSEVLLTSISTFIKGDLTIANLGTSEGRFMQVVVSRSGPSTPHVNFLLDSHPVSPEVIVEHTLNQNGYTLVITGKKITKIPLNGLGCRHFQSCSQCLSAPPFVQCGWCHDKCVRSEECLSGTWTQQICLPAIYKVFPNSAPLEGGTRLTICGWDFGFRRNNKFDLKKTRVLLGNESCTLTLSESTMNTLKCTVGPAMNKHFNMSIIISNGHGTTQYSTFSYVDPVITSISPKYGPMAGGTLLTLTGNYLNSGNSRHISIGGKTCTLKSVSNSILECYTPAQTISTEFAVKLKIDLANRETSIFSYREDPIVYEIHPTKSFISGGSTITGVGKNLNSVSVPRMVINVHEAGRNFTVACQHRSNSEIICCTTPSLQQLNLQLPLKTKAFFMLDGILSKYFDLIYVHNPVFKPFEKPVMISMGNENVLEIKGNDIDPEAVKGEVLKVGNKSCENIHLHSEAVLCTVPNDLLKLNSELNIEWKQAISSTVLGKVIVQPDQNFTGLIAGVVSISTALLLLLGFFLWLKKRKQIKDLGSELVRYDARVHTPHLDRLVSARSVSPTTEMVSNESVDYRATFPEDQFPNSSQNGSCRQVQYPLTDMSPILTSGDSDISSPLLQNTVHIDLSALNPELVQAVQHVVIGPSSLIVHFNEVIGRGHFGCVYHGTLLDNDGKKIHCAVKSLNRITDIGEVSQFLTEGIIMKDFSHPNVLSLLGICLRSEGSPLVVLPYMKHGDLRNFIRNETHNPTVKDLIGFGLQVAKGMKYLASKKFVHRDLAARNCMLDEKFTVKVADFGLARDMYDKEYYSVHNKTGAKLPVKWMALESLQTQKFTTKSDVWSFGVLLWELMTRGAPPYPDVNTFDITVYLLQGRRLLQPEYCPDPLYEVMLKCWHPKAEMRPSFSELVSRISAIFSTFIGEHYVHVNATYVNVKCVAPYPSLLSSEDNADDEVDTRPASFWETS
T2 sequence (P16234 24-1089): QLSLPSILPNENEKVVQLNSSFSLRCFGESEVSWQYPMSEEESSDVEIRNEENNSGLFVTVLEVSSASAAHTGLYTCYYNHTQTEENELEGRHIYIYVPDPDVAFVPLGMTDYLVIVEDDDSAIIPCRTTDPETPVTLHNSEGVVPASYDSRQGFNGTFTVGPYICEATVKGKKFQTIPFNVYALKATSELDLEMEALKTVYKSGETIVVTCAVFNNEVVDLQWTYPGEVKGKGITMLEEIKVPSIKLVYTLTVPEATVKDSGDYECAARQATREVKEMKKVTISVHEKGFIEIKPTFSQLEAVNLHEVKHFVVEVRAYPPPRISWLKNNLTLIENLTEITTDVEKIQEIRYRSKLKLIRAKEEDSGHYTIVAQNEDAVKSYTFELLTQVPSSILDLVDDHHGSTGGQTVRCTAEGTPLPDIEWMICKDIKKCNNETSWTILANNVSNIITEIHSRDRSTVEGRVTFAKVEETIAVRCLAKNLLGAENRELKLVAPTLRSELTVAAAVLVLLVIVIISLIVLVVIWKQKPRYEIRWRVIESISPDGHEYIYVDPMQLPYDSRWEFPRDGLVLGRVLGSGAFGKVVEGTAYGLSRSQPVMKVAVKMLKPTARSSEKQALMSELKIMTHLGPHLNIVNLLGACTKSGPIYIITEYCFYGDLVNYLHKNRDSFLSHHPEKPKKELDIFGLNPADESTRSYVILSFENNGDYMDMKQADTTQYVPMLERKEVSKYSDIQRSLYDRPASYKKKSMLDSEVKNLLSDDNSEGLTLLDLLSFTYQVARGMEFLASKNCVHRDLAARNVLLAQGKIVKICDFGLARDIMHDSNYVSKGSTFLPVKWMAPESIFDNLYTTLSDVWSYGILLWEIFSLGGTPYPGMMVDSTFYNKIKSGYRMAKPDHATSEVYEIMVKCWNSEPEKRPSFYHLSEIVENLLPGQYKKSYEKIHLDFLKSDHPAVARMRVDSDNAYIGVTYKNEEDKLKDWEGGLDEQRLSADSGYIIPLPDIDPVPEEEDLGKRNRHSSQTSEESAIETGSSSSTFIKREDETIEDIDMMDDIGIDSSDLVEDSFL

Compound | IC50 (FLT3 kinase) [µM] | IC50 (PDGFRα kinase) [µM] | IC50 (MET kinase) [µM]
C[C@@H]1CN(Cc2ccc(-c3cc4c(s3)Cc3c(-c5ccc6cn[nH]c6c5)n[nH]c3-4)cn2)C[C@H](C)O1 [Compound 16, (2R,6S)-4-((5-(3-(1H-indazol-6-yl)-1,4-dihydro-thieno[2′,3′:4,5]cyclopenta [1,2-c]pyrazol-6-yl)pyridin-2-yl)methyl)-2,6-dimethylmorpholine] | < 0.001 | 0.001 to 0.01 | > 1
Cn1ncc2ccc(-c3n[nH]c4c3Cc3sc(-c5ccc(CCN6CCOCC6)cc5)cc3-4)cc21 [Compound 22, 4-(4-(3-(1-methyl-1H-indazol-6-yl)-1,4-dihydro-thieno[2′,3′:4,5]cyclopenta [1,2-c]pyrazol-6-yl)phenethyl)morpholine] | < 0.001 | 0.01 to 0.03 | > 1
CN(C)c1ccc(-c2cc3c(s2)Cc2c(-c4ccc5cnn(C)c5c4)n[nH]c2-3)cn1 [Compound 5, N,N-dimethyl-5-(3-(1-methyl-1H-indazol-6-yl)-1,4-dihydrothieno [2′,3′:4,5]cyclopenta[1,2-c]pyrazol-6-yl)pyridin-2-amine] | 0.001 to 0.01 | 0.01 to 0.03 | > 1
Cc1cc(-c2cc3c(s2)Cc2c(-c4ccc5cnn(C)c5c4)n[nH]c2-3)ccn1 [Compound 17, 3-(1-methyl-1H-indazol-6-yl)-6-(2-methylpyridin-4-yl)-1,4-dihydrothieno [2′,3′:4,5]cyclopenta[1,2-c] pyrazole] | 0.001 to 0.01 | 0.01 to 0.03 | > 1
Cc1ccc(-c2cc3c(s2)Cc2c(-c4ccc5cnn(C)c5c4)n[nH]c2-3)cn1 [Compound 33, 3-(1-methyl-1H-indazol-6-yl)-6-(6-methylpyridin-3-yl)-1,4-dihydrothieno [2′,3′:4,5]cyclopenta [1,2-c]pyrazole] | < 0.001 | 0.001 to 0.01 | > 1
COc1cc(-c2cc3c(s2)Cc2c(-c4ccc5cnn(C)c5c4)n[nH]c2-3)ccc1CN1CCOCC1 [Compound 24, 4-(2-methoxy-4-(3-(1-methyl-1H-indazol-6-yl)-1,4-dihydrothieno[2′,3′:4,5]cyclopenta[1,2-c]pyrazol-6-yl)benzyl)morpholine] | < 0.001 | 0.001 to 0.01 | > 1
C[C@@H]1CN(Cc2cccc(-c3cc4c(s3)Cc3c(-c5ccc6cnn(C)c6c5)n[nH]c3-4)c2)C[C@H](C)O1 [Compound 12, (2S,6R)-2,6-dimethyl-4-(3-(3-(1-methyl-1H-indazol-6-yl)-1,4-dihydrothieno [2′,3′:4,5]cyclopenta[1,2-c]pyrazol-6-yl)benzyl) morpholine] | 0.001 to 0.01 | 0.03 to 0.1 | > 1
CCC(c1ccc(-c2cc3c(s2)Cc2c(-c4ccc5cnn(C)c5c4)n[nH]c2-3)cc1)N1CCOCC1 (stereo not drawn) [Compound 28, 4-(1-(4-(3-(1-methyl-1H-indazol-6-yl)-1,4-dihydro-thieno[2′,3′:4,5]cyclopenta [1,2-c]pyrazol-6-yl)phenyl)propyl)morpholine] | 0.001 to 0.01 | 0.01 to 0.03 | > 1
Cc1cc(-c2cc3c(s2)Cc2c(-c4ccc5cnn(C)c5c4)n[nH]c2-3)ccc1CN1CCOCC1 [Compound 26, 4-(2-methyl-4-(3-(1-methyl-1H-indazol-6-yl)-1,4-dihydrothieno[2′,3′:4,5]cyclopenta[1,2-c]pyrazol-6-yl)benzyl)morpholine] | 0.001 to 0.01 | 0.01 to 0.03 | > 1

The remaining lines, values ahead:

IC50 (FLT3 kinase) [µM] | IC50 (PDGFRα kinase) [µM] | IC50 (MET kinase) [µM] | Compound
0.001 to 0.01 | 0.001 to 0.01 | > 1 | Cn1ncc2ccc(-c3n[nH]c4c3Cc3sc(-c5ccc(CN6CCNC(=O)C6)cc5)cc3-4)cc21 [Compound 63, 4-(4-(3-(1-methyl-1H-indazol-6-yl)-1,4-dihydro-thieno[2′,3′:4,5]cyclopenta [1,2-c]pyrazol-6-yl)benzyl)piperazin-2-one]
< 0.001 | 0.001 to 0.01 | 0.3 to 1 | Cn1ncc2ccc(-c3n[nH]c4c3Cc3sc(-c5ccc(CN6CCC6)cc5)cc3-4)cc21 [Compound 103, 6-(4-(azetidin-1-ylmethyl)phenyl)-3-(1-methyl-1H-indazol-6-yl)-1,4-dihydro-thieno[2′,3′:4,5]cyclopenta [1,2-c]pyrazole]
< 0.001 | 0.03 to 0.1 | > 1 | Cn1ncc2ccc(-c3n[nH]c4c3Cc3sc(-c5cc(F)c(CN6CCOCC6)c(F)c5)cc3-4)cc21 [Compound 53, 4-(2,6-difluoro-4-(3-(1-methyl-1H-indazol-6-yl)-1,4-dihydrothieno [2′,3′:4,5]cyclopenta [1,2-c]pyrazol-6-yl)benzyl)morpholine]
< 0.001 | 0.03 to 0.1 | > 1 | Cn1ncc2ccc(-c3n[nH]c4c3Cc3sc(-c5ccc(CN6CCCOCC6)cc5)cc3-4)cc21 [Compound 97, 4-(4-(3-(1-methyl-1H-indazol-6-yl)-1,4-dihydro-thieno[2′,3′:4,5]cyclopenta [1,2-c]pyrazol-6-yl)benzyl)-1,4-oxazepane]
< 0.001 | 0.001 to 0.01 | > 1 | C[C@@H]1COCCN1Cc1ccc(-c2cc3c(s2)Cc2c(-c4ccc5cnn(C)c5c4)n[nH]c2-3)cc1 [Compound 74, (R)-3-methyl-4-(4-(3-(1-methyl-1H-indazol-6-yl)-1,4-dihydrothieno [2′,3′:4,5]cyclopenta [1,2-c]pyrazol-6-yl)benzyl)morpholine]
0.001 to 0.01 | 0.001 to 0.01 | > 1 | COc1cc(-c2cc3c(s2)Cc2c(-c4ccc5cnn(C)c5c4)n[nH]c2-3)ccc1C(=O)N1CCOCC1 [Compound 43, (2-methoxy-4-(3-(1-methyl-1H-indazol-6-yl)-1,4-dihydrothieno [2′,3′:4,5]cyclopenta [1,2-c]pyrazol-6-yl)phenyl)(morpholino) methanone]
0.001 to 0.01 | 0.03 to 0.1 | > 1 | CC(C)Cn1ncc2ccc(-c3n[nH]c4c3Cc3sc(-c5ccc(CN6CCOCC6)cc5)cc3-4)cc21 [Compound 35, 4-(4-(3-(1-isobutyl-1H-indazol-6-yl)-1,4-dihydro-thieno[2′,3′:4,5]cyclopenta [1,2-c]pyrazol-6-yl)benzyl)morpholine]
0.001 to 0.01 | 0.01 to 0.03 | > 1 | Cn1ncc2ccc(-c3n[nH]c4c3Cc3sc(-c5ccc(CN6CCCC6=O)cc5)cc3-4)cc21 [Compound 64, 1-(4-(3-(1-methyl-1H-indazol-6-yl)-1,4-dihydro-thieno[2′,3′:4,5]cyclopenta [1,2-c]pyrazol-6-yl)benzyl)pyrrolidin-2-one]
0.001 to 0.01 | 0.03 to 0.1 | > 1 | CN(c1ccc(-c2cc3c(s2)Cc2c(-c4ccc5cnn(C)c5c4)n[nH]c2-3)cc1)C1CCOCC1 [Compound 73, N-methyl-N-(4-(3-(1-methyl-1H-indazol-6-yl)-1,4-dihydrothieno [2′,3′:4,5]cyclopenta [1,2-c]pyrazol-6-yl)phenyl)tetrahydro-2H-pyran-4-amine]
